For nine compounds, IC50, viability and Activity results are on record in ChEMBL document CHEMBL1151944, “Activation of peroxisome proliferator-activated receptor gamma (PPARgamma) by nitroalkene fatty acids: importance of nitration position and degree of unsaturation” (J Med Chem, 2009).

The structures appear in SMILES notation. The source made the active and inactive calls. The rule behind the calls is not given here. A value given as a limit tells only on which side of the number the result lay.

The target of series [1] is T1, Peroxisome proliferator-activated receptor alpha (Homo sapiens, UniProt Q07869).
T1 sequence (Q07869 whole entry): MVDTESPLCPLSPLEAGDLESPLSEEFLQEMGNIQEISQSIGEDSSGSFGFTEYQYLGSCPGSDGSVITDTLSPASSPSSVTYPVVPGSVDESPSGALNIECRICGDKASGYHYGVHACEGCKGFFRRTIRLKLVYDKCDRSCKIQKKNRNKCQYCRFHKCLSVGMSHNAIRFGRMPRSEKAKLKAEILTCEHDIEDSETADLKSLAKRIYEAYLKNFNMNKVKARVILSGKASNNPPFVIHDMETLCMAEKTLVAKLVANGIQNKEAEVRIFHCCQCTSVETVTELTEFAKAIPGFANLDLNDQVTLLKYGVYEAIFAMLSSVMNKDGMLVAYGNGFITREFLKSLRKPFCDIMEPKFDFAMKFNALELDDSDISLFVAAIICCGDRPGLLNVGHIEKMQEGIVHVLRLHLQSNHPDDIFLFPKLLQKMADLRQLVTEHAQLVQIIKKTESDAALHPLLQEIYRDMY
Description: (§1) Displacement of [3H2]nTZD3 from GST-tagged human recombinant PPARalpha by scintillation proximity assay

The target of series [2] is T2, Peroxisome proliferator-activated receptor gamma (Homo sapiens, UniProt P37231).
T2 sequence (P37231 whole entry): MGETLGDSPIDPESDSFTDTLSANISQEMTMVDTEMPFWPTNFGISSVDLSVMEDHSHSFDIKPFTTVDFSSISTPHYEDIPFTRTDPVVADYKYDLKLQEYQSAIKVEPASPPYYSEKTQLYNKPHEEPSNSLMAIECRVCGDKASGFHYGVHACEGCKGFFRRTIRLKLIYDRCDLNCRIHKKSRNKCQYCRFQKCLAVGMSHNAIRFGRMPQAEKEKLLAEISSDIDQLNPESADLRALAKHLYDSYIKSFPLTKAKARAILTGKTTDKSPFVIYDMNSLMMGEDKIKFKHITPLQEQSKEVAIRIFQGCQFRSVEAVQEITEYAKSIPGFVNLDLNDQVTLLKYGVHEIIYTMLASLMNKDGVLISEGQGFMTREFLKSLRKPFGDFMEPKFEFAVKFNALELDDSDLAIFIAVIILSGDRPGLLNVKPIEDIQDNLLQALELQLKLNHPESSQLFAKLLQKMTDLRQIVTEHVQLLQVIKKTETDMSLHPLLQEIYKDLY
The series is described as follows: Displacement of [3H2]nTZD3 from GST-tagged human recombinant PPARgamma by scintillation proximity assay.

Series [3] can be described thus: Cytotoxicity against human MCF7 cells expressing human PPARgamma assessed as cell survival at 5 uM after 7 days by sulforhodamine B assay. On the technique in general: The SRB assay estimates cell density from bound dye.
For series [4], the target named is T3, Peroxisome proliferator-activated receptor gamma (Homo sapiens) (UniProt P37231).
T3 sequence (whole entry): T2 sequence (P37231 whole entry)
As to the kind of experiment: Activation of human PPAR-gamma-dependent transcription expressed in human MCF7 cells assessed as induction of PPRE-reporter gene expression at 1 uM after 24 hrs by dual luciferase reporter gene assay. The class given is cell-based. A general note: In a reporter assay the amount or activity of a reporter protein is the signal.

In series [5] the target is T1, Peroxisome proliferator-activated receptor alpha. The source holds these as a separate data set.
Description: as §1

`CCCCC/C=C(\CCCCCCCCCCC(=O)O)[N+](=O)[O-]`: the IC50 in series [1] was found to be 1.6 µM; in series [2], 0.039 µM.

Regarding `CCCCCC/C(=C\CCCCCCCC(=O)O)[N+](=O)[O-]`, the IC50 in series [1] is more than 15 µM; in series [2], 0.63 µM.

As for `CCCCCCCC/C=C(\CCCCCCCC(=O)O)[N+](=O)[O-]` [NITROLEIC ACID], the figures for the IC50 in series [1] and in series [2] were more than 15 µM and 0.98 µM, respectively. In series [3], the viability at 168 h, 5 µM is less than 5%.

Consider `CCCCCC/C=C(\CCCCCCCC(=O)O)[N+](=O)[O-]`, for which the IC50 in series [1] was more than 15 µM; in series [2], 0.83 µM.

In the case of `CCCCCCCCCCCC/C=C(\CCCC(=O)O)[N+](=O)[O-]`, the figures for the IC50 in series [1] and in series [2] were more than 15 µM and 1.68 µM, respectively.

On to `CCCCC/C(=C\CCCCCCCCCCC(=O)O)[N+](=O)[O-]`, for which the values for the IC50 in series [1] and in series [2] were 1.1 µM and 0.19 µM, respectively.

Take `CCCCCCCCCCCC/C(=C\CCCC(=O)O)[N+](=O)[O-]`: the IC50 in series [1] is more than 15 µM; in series [2], 1.72 µM.

As to `CCCCCCCC/C(=C\CCCCCCCC(=O)O)[N+](=O)[O-]` [CXA-10], the values for the IC50 in series [1] and in series [2] were more than 15 µM and 1.61 µM, respectively.

As for `CCCCC/C=C(\C/C=C\CCCCCCCC(=O)O)[N+](=O)[O-]`, the result in series [4] was Active. For the same compound, the IC50 in series [5] was determined as 9.6 µM.

By IC50 is commonly meant the point on the concentration scale where inhibition reaches its midpoint. One may read the viability as a per cent measure of how many cells are alive, often set against a control.
